Experimental data reported in ChEMBL document CHEMBL1145376, “C-8 Modifications of 3-alkyl-1,8-dibenzylxanthines as inhibitors of human cytosolic phosphoenolpyruvate carboxykinase” (Bioorg Med Chem Lett, 2007).

Target: T1, Phosphoenolpyruvate carboxykinase, cytosolic [GTP] (Rattus norvegicus, UniProt P07379)
T1 sequence (P07379 whole entry): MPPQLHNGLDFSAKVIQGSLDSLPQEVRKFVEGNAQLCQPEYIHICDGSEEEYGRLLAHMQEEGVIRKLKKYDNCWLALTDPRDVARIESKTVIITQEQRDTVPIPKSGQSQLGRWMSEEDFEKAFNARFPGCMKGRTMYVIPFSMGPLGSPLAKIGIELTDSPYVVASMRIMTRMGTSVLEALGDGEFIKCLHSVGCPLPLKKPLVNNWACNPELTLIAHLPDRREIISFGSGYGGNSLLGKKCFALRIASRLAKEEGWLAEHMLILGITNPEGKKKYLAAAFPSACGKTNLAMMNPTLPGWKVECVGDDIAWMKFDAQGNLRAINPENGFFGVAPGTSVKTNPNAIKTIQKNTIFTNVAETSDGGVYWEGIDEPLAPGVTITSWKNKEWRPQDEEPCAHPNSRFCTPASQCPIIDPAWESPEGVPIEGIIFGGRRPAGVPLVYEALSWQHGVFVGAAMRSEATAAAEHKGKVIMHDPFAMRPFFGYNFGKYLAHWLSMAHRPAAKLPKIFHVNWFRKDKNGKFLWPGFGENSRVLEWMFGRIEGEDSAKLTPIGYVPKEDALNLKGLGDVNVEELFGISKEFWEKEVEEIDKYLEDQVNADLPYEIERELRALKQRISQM
Test: Inhibition of cPEPCK in rat H4IIE cells assessed as effect on glucose production
Assay type: cell-based

Point of comparison: `Cn1cc(S(=O)(=O)Nc2ccc(Cc3nc4c([nH]3)c(=O)n(Cc3ccccc3F)c(=O)n4CC3CC3)cc2)cn1`, EC50 8750 nM. Against it:
- CC(=O)Nc1ccc(Cc2nc3c([nH]2)c(=O)n(Cc2ccccc2F)c(=O)n3CC2CC2)cc1 — 1.9-fold lower, 4700 nM
- Cc1nn(C)cc1S(=O)(=O)Nc1ccc(Cc2nc3c([nH]2)c(=O)n(Cc2ccccc2F)c(=O)n3CC2CC2)cc1 — 1.6-fold lower, 5570 nM
- O=c1c2[nH]c(Cc3ccc(NS(=O)(=O)c4cccnc4)cc3)nc2n(CC2CC2)c(=O)n1Cc1ccccc1F — 1.6-fold lower, 5500 nM
- Cc1nc(N)sc1S(=O)(=O)Nc1ccc(Cc2nc3c([nH]2)c(=O)n(Cc2ccccc2F)c(=O)n3CC2CC2)cc1 — within 1.5-fold, 8200 nM
- CCCCn1c(=O)n(Cc2ccccc2F)c(=O)c2[nH]c(Cc3ccc(NC(C)=O)cc3)nc21 — within 1.5-fold, 8600 nM
- CCCCn1c(=O)n(Cc2ccccc2F)c(=O)c2[nH]c(Cc3ccc(NS(=O)(=O)c4c(C)nn(C)c4Cl)cc3)nc21 — 2.2-fold lower, 3970 nM
- Cc1noc(C)c1S(=O)(=O)Nc1ccc(Cc2nc3c([nH]2)c(=O)n(Cc2ccccc2F)c(=O)n3CC2CC2)cc1 — 2.6-fold lower, 3400 nM
- Cc1nn(C)c(Cl)c1S(=O)(=O)Nc1ccc(Cc2nc3c([nH]2)c(=O)n(Cc2ccccc2F)c(=O)n3CC2CC2)cc1 — 4-fold lower, 2170 nM

Target: T2, Phosphoenolpyruvate carboxykinase, cytosolic [GTP] (Homo sapiens, UniProt P35558)
T2 sequence (P35558 whole entry): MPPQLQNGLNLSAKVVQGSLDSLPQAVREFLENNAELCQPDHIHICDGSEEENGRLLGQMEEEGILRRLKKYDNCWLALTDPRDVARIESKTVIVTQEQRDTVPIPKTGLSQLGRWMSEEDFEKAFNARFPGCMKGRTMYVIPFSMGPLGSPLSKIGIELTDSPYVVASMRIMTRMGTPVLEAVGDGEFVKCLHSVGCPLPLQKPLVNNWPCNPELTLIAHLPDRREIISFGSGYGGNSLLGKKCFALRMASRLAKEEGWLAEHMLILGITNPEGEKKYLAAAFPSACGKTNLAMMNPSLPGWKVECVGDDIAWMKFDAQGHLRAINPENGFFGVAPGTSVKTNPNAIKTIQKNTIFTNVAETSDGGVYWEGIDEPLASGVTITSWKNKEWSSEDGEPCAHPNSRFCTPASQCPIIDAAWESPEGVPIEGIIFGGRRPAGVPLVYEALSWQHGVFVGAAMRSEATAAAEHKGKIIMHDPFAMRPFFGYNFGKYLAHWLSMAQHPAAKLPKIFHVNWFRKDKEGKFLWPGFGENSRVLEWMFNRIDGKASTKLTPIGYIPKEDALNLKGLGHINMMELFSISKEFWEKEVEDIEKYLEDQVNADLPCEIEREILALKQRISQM
Test: Inhibition of human cPEPCK

Point of comparison: `CCCCn1c(=O)n(Cc2ccccc2F)c(=O)c2[nH]c(Cc3ccc(NS(=O)(=O)c4c(C)nn(C)c4Cl)cc3)nc21`, IC50 540 nM. Against it:
- CCCCn1c(=O)n(Cc2ccccc2F)c(=O)c2[nH]c(Cc3ccc(NC(=O)C(F)(F)F)cc3)nc21 — 4.3-fold higher, 2300 nM
- CC(=O)Nc1ccc(Cc2nc3c([nH]2)c(=O)n(Cc2ccccc2F)c(=O)n3CC2CC2)cc1 — within 1.5-fold, 690 nM
- Cc1nn(C)cc1S(=O)(=O)Nc1ccc(Cc2nc3c([nH]2)c(=O)n(Cc2ccccc2F)c(=O)n3CC2CC2)cc1 — 2.2-fold lower, 240 nM
- Nc1ccc(Cc2nc3c([nH]2)c(=O)n(Cc2ccccc2F)c(=O)n3CC2CC2)cc1 — 2.9-fold higher, 1560 nM
- O=C(Nc1ccc(Cc2nc3c([nH]2)c(=O)n(Cc2ccccc2F)c(=O)n3CC2CC2)cc1)C(F)(F)F — 3.3-fold higher, 1800 nM
- CCCCn1c(=O)n(Cc2ccccc2F)c(=O)c2[nH]c(Cc3ccc(N)cc3N)nc21 — 10-fold higher, 5650 nM
- CN(C)CC(=O)Nc1ccc(Cc2nc3c([nH]2)c(=O)n(Cc2ccccc2F)c(=O)n3CC2CC2)cc1 — 3.8-fold higher, 2070 nM
- CCCCn1c(=O)n(Cc2ccccc2F)c(=O)c2[nH]c(Cc3ccc(N)cc3)nc21 — 4.7-fold higher, 2560 nM
- CCCCn1c(=O)n(Cc2ccccc2F)c(=O)c2[nH]c(Cc3ccc(NC(C)=O)cc3NC(C)=O)nc21 — 16-fold higher, 8700 nM
- CCCCn1c(=O)n(Cc2ccccc2F)c(=O)c2[nH]c(Cc3ccc(NC(C)=O)cc3)nc21 — 3.9-fold higher, 2110 nM

Target: T3, Phosphoenolpyruvate carboxykinase, cytosolic [GTP] (Homo sapiens) (UniProt P35558)
T3 sequence (whole entry): T2 sequence (P35558 whole entry)
Test: Inhibition of human cPEPCK at 1 uM

Point of comparison: `CCCCn1c(=O)n(Cc2ccccc2F)c(=O)c2[nH]c(Cc3ccc(NS(=O)(=O)c4ccsc4C(=O)OC)cc3)nc21`, inhibition 19%. Against it:
- CCCCn1c(=O)n(Cc2ccccc2F)c(=O)c2[nH]c(Cc3ccc(NS(=O)(=O)Cc4ccccc4)cc3)nc21 — higher, 31%
- CCCCn1c(=O)n(Cc2ccccc2F)c(=O)c2[nH]c(Cc3ccc(NS(=O)(=O)c4cccs4)cc3)nc21 — higher, 30%
- CCCCn1c(=O)n(Cc2ccccc2F)c(=O)c2[nH]c(Cc3ccc(NS(=O)(=O)c4ccccc4)cc3)nc21 — higher, 22%
